Measured values as given in PMC8704606, “The Artemiside-Artemisox-Artemisone-M1 Tetrad: Efficacies against Blood Stage P. falciparum Parasites, DMPK Properties, and the Case for Artemiside” (Pharmaceutics, 2021).
Like-named read-outs stand apart in the source and are kept apart here.

Legend:
[1] = Cytotoxicity (LDH assay) against HepG2 cells; format: cell-based; conditions: human, HepG2 cells (hepatocellular carcinoma)
Experimental: Cytotoxicity against mammalian hepatocellular carcinoma cells (HepG2 cells) was determined using the lactate dehydrogenase assay (LDH, Biovision Inc., Milpitas, CA, USA). […] Compound working solutions were prepared from 10 mM stock solutions (100% DMSO) in complete DMEM to a final DMSO (Sigma-Aldrich) conc. of <0.1% (vol/vol). […] Data analysis was performed using GraphPad Prism (version 6) software.

[2] = Pharmacokinetics and metabolism after iv and po administration; format: in vivo; conditions: for half-life: mean ± SD, read-out: t½ (converted); for MRT last: read-out: MRT0-last; for AUC(0-t): up to 7 h
Experimental: The plasma concentration-time profiles of the parent compounds and metabolites after administration iv and po to male C57/BL6 mice are presented in Figure 2, Figure 3 and Figure 4. Artemiside was quantifiable up to 24 h in all mice dosed iv and up to 7 h po (lower limit of quantitation LLOQ = 1.6 ng/mL or 0.004 μM) (Figure 2). […] For both artemiside and artemisox, the metabolite artemisone was quantifiable up to 3 h in both the po and iv groups (Figure 2 and Figure 3). Thereby it is confirmed that artemiside is rapidly converted via artemisox into artemisone. Artemisone itself was quantifiable up to three hours post dose (Figure 4). The mean circulating concentrations for the compounds and their metabolites are presented in Table S3a–f in the Supplementary Material 1. The metabolite M1 was also detected upon administration of artemiside, artemisox, and artemisone, but it was not quantified here; chromatograms indicating the presence of M1 are illustrated in Figure S3a–c in the Supplementary Material 1. In addition, the plasma concentration-time curves for artemiside and its metabolites artemisone and M1 following iv and po dosing in the same murine model are presented and discussed in detail elsewhere (cf. Figure 4 in reference).
All work was conducted with prior approval of the animal ethics committee of the University of Cape Town in accordance with the South African National Standards for the Care and Use of Animals for Scientific Purposes and guidelines from the South African Department of Health. The requirements and methods for the pharmacokinetics in vivo involving po and iv drug administration, sample extraction, analyses of samples by LC-MS/MS, and data analyses are described elsewhere. For the animal experiments and formulations, the compounds were dissolved in a 10:60:30 mixture of N,N-dimethylacetamide-polypropylene glycol-polyethylene glycol for intravenous dosing (iv) at 5 mg/kg. For the oral dose (po), compounds were individually dosed as a suspension in 0.5% (w/v) hydroxypropylmethylcellulose in water with 0.2% Tween80 at 50 mg/kg to male C57/BL6 mice (n = 3 for each group). For PK sampling, blood samples were collected at predetermined times (0.08, 0.25, 0.5, 1, 3, 5, 7, and 24 h) for both po and iv dosing via tail bleeding into heparinized tubes, centrifuged, and the plasma samples were stored at −80 °C until extraction. For preparation of samples, the frozen plasma samples were thawed and 15 μL was extracted by liquid–liquid extraction using a universal buffer (pH8) containing 10 ng/mL of the internal standard and ethyl acetate, and the extract was vortexed and centrifuged. Calibration standards and quality controls were extracted following the same procedure. Supernatants were dried down, reconstituted, and injected onto the column for LC-MS/MS analysis using an AB SCIEX 5500 QTRAP instrument coupled to an Agilent 1260 HPLC detection system as previously described.

[3] = male, C57/BL6, mouse, plasma, iv 5 mg/kg, parent drug
[4] = male, C57/BL6, mouse, plasma, po 50 mg/kg, parent drug

Question: With `C[C@H]1[C@H](N2CC[S+]([O-])CC2)O[C@@H]2O[C@@]3(C)CC[C@H]4[C@H](C)CC[C@@H]1[C@@]24OO3` [Artemisox 6, Artemisox] as the compound, how does the IC50 at 24 h [1] read?
Answer: The IC50 at 24 h was greater than 50 µM.

Question: And the “Mean iv circulating concentration” value ([2]; 7 h after iv 5 mg/kg artemisox 6)?
Answer: Its value is “blq”.

Question: What about the “Mean iv circulating concentration” value ([2]; 24 h after iv 5 mg/kg artemisox 6) of the same compound?
Answer: The value was “blq”.

Question: What about the “Mean po circulating concentration” value ([2]; 24 h after po 50 mg/kg artemiside 5) of the same compound?
Answer: Its value is “blq”.

Question: What about the “Mean po circulating concentration” value ([2]; 24 h after po 50 mg/kg artemisox 6) of the same compound?
Answer: The value was “blq”.

Question: What about the “quantifiable/detectable in plasma up to” value ([2]; iv group, parent drug, LLOQ 1.6 ng/mL or 0.004 μM for artemiside) of the same compound?
Answer: Its value is “up to 5 h”.

Question: And the concentration at 0.08 h ([2]; male, C57/BL6, mouse, plasma, iv, 5 mg/kg, 0.08 h after iv 5 mg/kg artemiside 5, read-out: Mean iv circulating concentration)?
Answer: The concentration at 0.08 h was 1.93 µM.

Question: And the concentration at 0.08 h ([2]; male, C57/BL6, mouse, plasma, iv, 5 mg/kg, 0.08 h after iv 5 mg/kg artemisox 6, read-out: Mean iv circulating concentration)?
Answer: The concentration at 0.08 h was 1.9 µM.

Question: And the concentration at 0.25 h ([2]; male, C57/BL6, mouse, plasma, iv, 5 mg/kg, 0.25 h after iv 5 mg/kg artemiside 5, read-out: Mean iv circulating concentration)?
Answer: The concentration at 0.25 h was 1.82 µM.

Question: And the concentration at 0.25 h ([2]; male, C57/BL6, mouse, plasma, iv, 5 mg/kg, 0.25 h after iv 5 mg/kg artemisox 6, read-out: Mean iv circulating concentration)?
Answer: The concentration at 0.25 h was 2.42 µM.

Question: What about the concentration at 0.5 h ([2]; male, C57/BL6, mouse, plasma, iv, 5 mg/kg, 0.5 h after iv 5 mg/kg artemiside 5, read-out: Mean iv circulating concentration) of the same compound?
Answer: Its concentration at 0.5 h is 1.38 µM.

Question: What about the concentration at 0.5 h ([2]; male, C57/BL6, mouse, plasma, iv, 5 mg/kg, 0.5 h after iv 5 mg/kg artemisox 6, read-out: Mean iv circulating concentration) of the same compound?
Answer: Its concentration at 0.5 h is 1.92 µM.

Question: What about the concentration at 1 h ([2]; male, C57/BL6, mouse, plasma, iv, 5 mg/kg, 1 h after iv 5 mg/kg artemiside 5, read-out: Mean iv circulating concentration) of the same compound?
Answer: The concentration at 1 h was 0.674 µM.

Question: And the concentration at 1 h ([2]; male, C57/BL6, mouse, plasma, iv, 5 mg/kg, 1 h after iv 5 mg/kg artemisox 6, read-out: Mean iv circulating concentration)?
Answer: The concentration at 1 h was 0.663 µM.

Question: And the concentration at 3 h ([2]; male, C57/BL6, mouse, plasma, iv, 5 mg/kg, 3 h after iv 5 mg/kg artemiside 5, read-out: Mean iv circulating concentration)?
Answer: Its concentration at 3 h is 0.066 µM.

Question: What about the concentration at 3 h ([2]; male, C57/BL6, mouse, plasma, iv, 5 mg/kg, 3 h after iv 5 mg/kg artemisox 6, read-out: Mean iv circulating concentration) of the same compound?
Answer: The concentration at 3 h was 0.007 µM.

Question: And the concentration at 5 h ([2]; male, C57/BL6, mouse, plasma, iv, 5 mg/kg, 5 h after iv 5 mg/kg artemiside 5, read-out: Mean iv circulating concentration)?
Answer: The concentration at 5 h was 0.02 µM.

Question: What about the concentration at 5 h ([2]; male, C57/BL6, mouse, plasma, iv, 5 mg/kg, 5 h after iv 5 mg/kg artemisox 6, read-out: Mean iv circulating concentration) of the same compound?
Answer: Its concentration at 5 h is 0.007 µM.

Question: What about the concentration at 7 h ([2]; male, C57/BL6, mouse, plasma, iv, 5 mg/kg, 7 h after iv 5 mg/kg artemiside 5, read-out: Mean iv circulating concentration) of the same compound?
Answer: Its concentration at 7 h is 0.011 µM.

Question: What about the concentration at 24 h ([2]; male, C57/BL6, mouse, plasma, iv, 5 mg/kg, 24 h after iv 5 mg/kg artemiside 5, read-out: Mean iv circulating concentration) of the same compound?
Answer: Its concentration at 24 h is 0.005 µM.

Question: And the half-life ([2]; male, C57/BL6, mouse, plasma, iv, 5 mg/kg, iv 5 mg/kg, parent drug)?
Answer: The half-life was 25.8 ± 7.2 min.

Question: And the concentration at 0.08 h ([2]; male, C57/BL6, mouse, plasma, po, 50 mg/kg, 0.08 h after po 50 mg/kg artemiside 5, read-out: Mean po circulating concentration)?
Answer: The concentration at 0.08 h was 1.86 µM.

Question: What about the concentration at 0.08 h ([2]; male, C57/BL6, mouse, plasma, po, 50 mg/kg, 0.08 h after po 50 mg/kg artemisox 6, read-out: Mean po circulating concentration) of the same compound?
Answer: Its concentration at 0.08 h is 3.04 µM.

Question: What about the concentration at 0.25 h ([2]; male, C57/BL6, mouse, plasma, po, 50 mg/kg, 0.25 h after po 50 mg/kg artemiside 5, read-out: Mean po circulating concentration) of the same compound?
Answer: Its concentration at 0.25 h is 2.15 µM.

Question: What about the concentration at 0.25 h ([2]; male, C57/BL6, mouse, plasma, po, 50 mg/kg, 0.25 h after po 50 mg/kg artemisox 6, read-out: Mean po circulating concentration) of the same compound?
Answer: The concentration at 0.25 h was 4.21 µM.

Question: And the concentration at 0.5 h ([2]; male, C57/BL6, mouse, plasma, po, 50 mg/kg, 0.5 h after po 50 mg/kg artemiside 5, read-out: Mean po circulating concentration)?
Answer: The concentration at 0.5 h was 2.51 µM.

Question: And the concentration at 0.5 h ([2]; male, C57/BL6, mouse, plasma, po, 50 mg/kg, 0.5 h after po 50 mg/kg artemisox 6, read-out: Mean po circulating concentration)?
Answer: Its concentration at 0.5 h is 2.15 µM.

Question: What about the concentration at 1 h ([2]; male, C57/BL6, mouse, plasma, po, 50 mg/kg, 1 h after po 50 mg/kg artemiside 5, read-out: Mean po circulating concentration) of the same compound?
Answer: Its concentration at 1 h is 2.03 µM.

Question: And the concentration at 1 h ([2]; male, C57/BL6, mouse, plasma, po, 50 mg/kg, 1 h after po 50 mg/kg artemisox 6, read-out: Mean po circulating concentration)?
Answer: The concentration at 1 h was 2.01 µM.

Question: And the concentration at 3 h ([2]; male, C57/BL6, mouse, plasma, po, 50 mg/kg, 3 h after po 50 mg/kg artemiside 5, read-out: Mean po circulating concentration)?
Answer: The concentration at 3 h was 0.286 µM.

Question: What about the concentration at 3 h ([2]; male, C57/BL6, mouse, plasma, po, 50 mg/kg, 3 h after po 50 mg/kg artemisox 6, read-out: Mean po circulating concentration) of the same compound?
Answer: The concentration at 3 h was 0.013 µM.

Question: And the concentration at 5 h ([2]; male, C57/BL6, mouse, plasma, po, 50 mg/kg, 5 h after po 50 mg/kg artemiside 5, read-out: Mean po circulating concentration)?
Answer: The concentration at 5 h was 0.007 µM.

Question: What about the concentration at 5 h ([2]; male, C57/BL6, mouse, plasma, po, 50 mg/kg, 5 h after po 50 mg/kg artemisox 6, read-out: Mean po circulating concentration) of the same compound?
Answer: The concentration at 5 h was 0.005 µM.

Question: And the concentration at 7 h ([2]; male, C57/BL6, mouse, plasma, po, 50 mg/kg, 7 h after po 50 mg/kg artemiside 5, read-out: Mean po circulating concentration)?
Answer: Its concentration at 7 h is 0.005 µM.

Question: What about the concentration at 7 h ([2]; male, C57/BL6, mouse, plasma, po, 50 mg/kg, 7 h after po 50 mg/kg artemisox 6, read-out: Mean po circulating concentration) of the same compound?
Answer: The concentration at 7 h was 0.004 µM.

Question: And the half-life ([2]; male, C57/BL6, mouse, plasma, po, 50 mg/kg, po 50 mg/kg, parent drug)?
Answer: The half-life was 32.4 ± 6 min.

Question: What about the clearance ([2]; male, C57/BL6, mouse, plasma, iv 5 mg/kg) of the same compound?
Answer: Its clearance is 6.9 L/h/kg.

Question: What about the AUC(0-inf) [2, 3] of the same compound?
Answer: Its AUC(0-inf) is 2000 ± 700 nM·h.

Question: What about the MRT last ([2]; male, C57/BL6, mouse, plasma, iv 5 mg/kg, parent drug, 0-last up to 7 h) of the same compound?
Answer: Its MRT last is 34.2 ± 2.4 min.

Question: And the AUC(0-t) [2, 3]?
Answer: Its AUC(0-t) is 2000 ± 700 nM·h.

Question: And the Vd ([2]; male, C57/BL6, mouse, plasma, iv 5 mg/kg, read-out: Vss)?
Answer: Its Vd is 4 ± 1.2 L/kg.

Question: And the bioavailability ([2]; male, C57/BL6, mouse, plasma, po 50 mg/kg vs iv 5 mg/kg, read-out: F (bioavailability))?
Answer: Its bioavailability is 16 ± 2%.

Question: What about the Cmax [2, 4] of the same compound?
Answer: The Cmax was 4.5 ± 2.3 µM.

Question: And the MRT last [2, 4]?
Answer: The MRT last was 41.4 ± 5.4 min.

Question: And the AUC(0-t) [2, 4]?
Answer: The AUC(0-t) was 3300 ± 1400 nM·h.

Question: And the “MAT (mean absorption time = MRTpo–MRTiv)” value ([2]; po 50 mg/kg)?
Answer: Its value is 7.8 ± 4.2 min.

Question: What about the “quantifiable/detectable in plasma up to” value ([2]; po group, parent drug) of the same compound?
Answer: The value was “up to 7 h”.
